Reference: PubChem BioAssay (NCI)
“And” between values parts separate entries of the source, which are not always exact repeats. Equal values may be shown once.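 Each compound was tested at five concentrations against cells in 96-well plates for 48 hours. Abbreviation: GI50, concentration required for 50% inhibition of growth. TGI denotes the concentration required for complete inhibition of growth.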

What was measured:
Experiment in all cases: growth of human tumour cells (NCI), 48 h
[1] = system: HL-60(TB) leukemia
[2] = system: K-562 leukemia
[3] = system: MDA-MB-435
[4] = system: MOLT-4 leukemia
[5] = system: NCI-H460 lung
[6] = system: OVCAR-5 ovarian
[7] = system: PC-3 prostate
[8] = system: SF-295 CNS
[9] = system: SK-MEL-28 melanoma
[10] = system: U251 CNS

Compound | GI50 [1] | TGI [1] | GI50 [2] | TGI [2] | GI50 [3] | TGI [3] | GI50 [4] | TGI [4] | GI50 [5] | TGI [5] | GI50 [6] | TGI [6] | GI50 [7] | TGI [7] | GI50 [8] | TGI [8] | GI50 [9] | TGI [9] | GI50 [10] | TGI [10]
O=C(/C=C/c1ccccc1Cl)c1ccc(O)cc1 | 3.22 µM | > 23.2 µM | 3.12 µM | > 100 µM | 4.23 µM | 17.6 µM | 5.64 µM | > 57.6 µM | 4.4 µM | 16.8 µM | 19.8 µM | 37.4 µM | 5.65 µM | 26.5 µM | 8.97 µM | 23.7 µM | 11 µM | 23 µM | 3.41 µM | 12.7 µM
COc1c(Nc2ncc(Cl)c(N[C@@H]3[C@H]4C=CC(C4)[C@@H]3C(N)=O)n2)ccc2c1CC[C@@H](N1CCOCC1)CC2 | 4.86 µM | 20.6 µM | 5.52 µM | 59.7 µM | 2.72 µM | 15.7 µM | 4.05 µM | 35.5 µM | 4.19 µM | 18.2 µM | 1.4 µM | 17.8 µM | 3.94 µM | 23.7 µM | 4.47 µM | 17.8 µM | 3.25 µM | 17.7 µM | 3.2 µM | 15.7 µM
Cn1c(=O)c(Sc2ccccc2F)cc2cnc(NC3CCOCC3)nc21 | > 25 µM | > 25 µM | > 25 µM | > 25 µM | > 25 µM | > 25 µM | > 25 µM | > 25 µM | > 25 µM | > 25 µM | > 25 µM | > 25 µM | > 25 µM | > 25 µM | > 25 µM | > 25 µM | > 25 µM | > 25 µM | > 25 µM | > 25 µM
O=S(=O)(c1ccc2c(c1)C(=NO)c1cc(S(=O)(=O)N3CCCCC3)ccc1-2)N1CCCCC1 | 0.107 µM and 0.189 µM | 0.326 µM and 0.549 µM | 0.211 µM and 0.216 µM | 0.452 µM and 0.785 µM | 0.173 µM and 0.102 µM | 0.317 µM and 0.244 µM | 0.204 µM and 0.215 µM | 0.433 µM and 0.832 µM | 0.214 µM and 0.106 µM | 0.465 µM and 0.268 µM | 0.153 µM and 0.151 µM | 0.315 µM and 0.293 µM | 0.263 µM and 0.171 µM | 0.812 µM and 0.381 µM | 0.188 µM and 0.141 µM | 0.352 µM and 0.283 µM | 0.346 µM and 0.177 µM | > 1 µM and 0.326 µM | > 1 µM and 0.178 µM | > 1 µM and 0.344 µM
CCS(=O)(=O)c1ccc(OC)c(Nc2ncc(-c3cccc(-c4ccccc4F)c3)o2)c1 | > 25 µM | > 25 µM | 5.75 µM | > 25 µM | > 25 µM | > 25 µM | > 25 µM | > 25 µM | > 25 µM | > 25 µM | 13 µM | > 25 µM | 15.5 µM | > 25 µM | 10.1 µM | > 25 µM | > 25 µM | > 25 µM | 12.1 µM | > 25 µM
COc1ccccc1/C=C1\CCC(CN(C)C)C1=O (centres undefined) |  | 6.68 µM |  | 11.3 µM |  | 25.2 µM |  | 17.5 µM |  | 44.5 µM |  | 24.2 µM |  | 18 µM |  | 29.7 µM |  | 12.2 µM |  | 26.9 µM
COc1cccc(C2=NN(C(C)=O)C(c3cc(OC)c(OC)c(OC)c3)C2)c1 (centres undefined) | 1.55 µM | 6.51 µM | 0.9 µM | > 84.5 µM | 0.224 µM | 0.782 µM | 3.67 µM | > 100 µM | 2.14 µM | 11.2 µM | 8.09 µM | > 100 µM | 1.71 µM | > 100 µM | 0.576 µM | 3.98 µM | > 22.8 µM | > 100 µM | 3.37 µM | > 100 µM
NC(=O)c1cccc(N)c1 | > 100 µM | > 100 µM | > 100 µM | > 100 µM | > 100 µM | > 100 µM | > 100 µM | > 100 µM | > 100 µM | > 100 µM | > 100 µM | > 100 µM | > 100 µM | > 100 µM | > 100 µM | > 100 µM | > 100 µM | > 100 µM | > 100 µM | > 100 µM
COc1cc2c3c(n(CCCN=[N+]=[N-])c(=O)c2cc1OC)-c1ccc(N)cc1C3=O | 0.102 µM | 1.02 µM | 0.177 µM |  | 0.479 µM | 1.65 µM | 0.0731 µM | 1.46 µM | 0.0265 µM | 0.139 µM | 0.633 µM | 1.33 µM | 0.27 µM | 3.58 µM | 0.0835 µM | 1.51 µM | 0.613 µM | 2.78 µM | 0.0832 µM | 0.766 µM
Cc1nc(NC(=O)COc2cccc(/C=C3\COc4ccccc4C3=O)c2)sc1C | 2.8 µM | > 29.9 µM | 3.1 µM | > 100 µM | 2.14 µM | 5.74 µM | 3.5 µM | > 100 µM | 3.19 µM | 11.3 µM | 1.94 µM | 3.88 µM | 1.76 µM | 4.05 µM | 1.64 µM | 3.33 µM | 1.79 µM | 3.32 µM | 1.54 µM | 2.9 µM
